Patent US20240091324A1, “GASTROINTESTINAL HEALTH COMPOSITION” (priority 2019, published 2024)

Columns and labels:
Assay type in all cases: cell-based, human
[1] = test system: IL-8 release from Caco-2 monolayers; experiment: Release of IL-8 from polarised Caco-2 monolayers stimulated with LPS, TNF-α, IFN-β; conditions: for % increase in anti-inflammatory activity compared to equivalent formulation without bromelain (difference of means): plus 80 ug/ml bromelain
Procedure: Inflammatory model of Caco-2 polarised monolayer stimulated with inflammatory mediators LPS, TNF-α, IFN-β: Polarised Caco-2 models were generated as previously described. When cell cultures reached a baseline TER of >1000/cm^2, the monolayers were stimulated by addition of 0.6 ml containing 50 ng/ml IFN-β, 10 μg/ml LPS and 5 ng/ml TNFα to the basolateral compartment. Immediately after the addition of the stimulation cocktail 0.25 ml of GaRP±0-80 μg/ml bromelain was applied to the apical compartment. After the 24 h incubation culture supernatants from the apical side were collected for quantitation of IL-8.
The human colorectal adenocarcinoma cell-line C2BBe1 was grown and maintained in Dulbecco's modified Eagle's medium (DMEM) supplemented with 10% v/v fetal bovine serum (FBS), 4 mM L-glutamine, 100 U/ml penicillin and […] streptomycin. All experiments were conducted on C2BBe1 cells within 12 passages after thawing.
In an experiment to evaluate the anti-inflammatory effect of bromelain or various GaRP formulations, 0.25 ml of test samples was applied to the apical side for 24 h, at the same time 0.6 ml of a cocktail containing 50 ng/ml IFN+10 ug/ml LPS+5 ng/ml TNF was added to the basolateral side in this model. After the 24 h incubation culture supernatants from the apical side were collected and IL-8 quantitated by ELISA.

Enterocyte = experiment: Observed therapeutic effective dose determined in the in vitro experiments (Table 4)
Procedure: (§1) The observed therapeutic effective dose was determined in the in vitro experiments described herein.
(§2) Table 4 summarises the observed therapeutic effective dose for each GaRP formulation component.

Macrophage = experiment: as above
Procedure: as §1, §2

[2] = formulation or component plus 80 ug/ml bromelain, 24 h
[3] = without bromelain, test sample apical 24 h, IFN+LPS+TNF cocktail basolateral

Row | Compound | % inhibition of the release of IL-8 Median ± SEM [1, 2] [%] | % increase in anti-inflammatory activity compared to equivalent formulation without bromelain (difference of means) [1] [%] | % inhibition of the release of IL-8 Median ± SEM [1, 3] [%] | observed therapeutic effective dose, Target cell Enterocyte (pg/cell) (Enterocyte) | observed therapeutic effective dose, Target cell Macrophage (pg/cell) (Macrophage)
1 | CSCC[C@H](N)C(=O)O [L-methionine] | 73 ± 10 | 53 | 20 ± 5 |  | 
2 | C[C@@H](O)[C@H](N)C(=O)O [L-threonine] | 73 ± 11 | 55 | 18 ± 1 | 15 | 300
3 | NC(=O)CC[C@H](N)C(=O)O [L-glutamine] | 83 ± 1 | 72 | 11 ± 7 |  | 
